# Like-named read-outs stand apart in the source and are kept apart here. Marks after values point to notes of the source that are not given here.
# Legend:
# [1] = system: hiPSC-derived neurons co-cultured with human primary astrocytes in 3D; experiment: Ca2+ transient oscillation assay (FDSS), 3D spheroids; assay type: cell-based; conditions: 60 min
# How it was run: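 Fura-2 fluorescence was read twice for 20 min each: a baseline 10 min after 0.04% DMSO, and again 60 min after compound addition at nominal final concentration. The 3D co-cultures (1:1 hiPSC neurons from a donor and human astrocytes, 8000 each) matured 5 weeks in BrainPhys medium after a 1-week differentiation.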
# [2] = system: hiPSC-derived neurons co-cultured with human primary astrocytes in 2D; experiment: Ca2+ transient oscillation assay (FDSS), 2D co-culture; assay type: cell-based; conditions: for effect on peak number / Ca2+ neuronal oscillations, in words: 2D format; for activation at 11.11 µM / activation at 33.33 µM / activation at 100 µM / activation at 300 µM / activation at 3.7 µM: Homo sapiens, 1 h, 60 min
# How it was run: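 Cultures were 10,000 CW50065 hiPSC excitatory neurons plus 2500 primary human astrocytes per well. Recordings used Cal-520 dye in HBSS/HEPES/glucose at 37 °C, with a 470/540 nm read at 2 Hz. Oscillations were stabilized with 0.04% DMSO, read for 20 min, then read again 60 min after compound addition (final DMSO 0.1%).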
# [3] = ref PharmaPendium, cited from earlier work
# [4] = read-out: Area under the curve - 2D Mean
# [5] = read-out: Peak amplitude - 2D Mean
# [6] = read-out: Peak-to-peak interval - 2D Mean
# [7] = Table 1, peak plasma concentration in men, free therapeutic Cmax
# [8] = Table 2, highest plasma concentration in humans after the therapeutic dose
compound,measurement,setting,value
Cn1c(=O)c2[nH]cnc2n(C)c1=O [Theophylline],Area under the curve - 3D Mean,[1]; 11.11 µM,156.1 % change from baseline
same,Peak Number—3D Mean,[1]; 11.11 µM,2.0 % change from baseline
same,Peak amplitude - 3D Mean,[1]; 11.11 µM,121.2 % change from baseline
same,Peak width - 3D Mean,[1]; 11.11 µM,11.1 % change from baseline
same,Peak-to-peak interval - 3D Mean,[1]; 11.11 µM,−4.0 % change from baseline
same,Area under the curve - 3D Mean,[1]; 33.33 µM,171.1 % change from baseline
same,Peak Number—3D Mean,[1]; 33.33 µM,53.5 * % change from baseline
same,Peak amplitude - 3D Mean,[1]; 33.33 µM,142.1 % change from baseline
same,Peak width - 3D Mean,[1]; 33.33 µM,12.2 % change from baseline
same,Peak-to-peak interval - 3D Mean,[1]; 33.33 µM,−21.2 % change from baseline
same,Area under the curve - 3D Mean,[1]; 100 µM,148.8 % change from baseline
same,Peak Number—3D Mean,[1]; 100 µM,78.1 * % change from baseline
same,Peak amplitude - 3D Mean,[1]; 100 µM,99.6 % change from baseline
same,Peak width - 3D Mean,[1]; 100 µM,21.3 % change from baseline
same,Peak-to-peak interval - 3D Mean,[1]; 100 µM,−37.1 % change from baseline
same,Area under the curve - 3D Mean,[1]; 300 µM,134.2 % change from baseline
same,Peak Number—3D Mean,[1]; 300 µM,114.2 * % change from baseline
same,Peak amplitude - 3D Mean,[1]; 300 µM,89.4 % change from baseline
same,Peak width - 3D Mean,[1]; 300 µM,29.3 % change from baseline
same,Peak-to-peak interval - 3D Mean,[1]; 300 µM,−45.7 % change from baseline
same,"effect on peak number / Ca2+ neuronal oscillations, in words",[2],significantly increased peak number
same,activation at 11.11 µM,[2]; [4],32.3%
same,activation at 11.11 µM,[2]; read-out: Peak Number—2D Mean,-5.7%
same,activation at 11.11 µM,[2]; [5],12.7%
same,activation at 11.11 µM,[2]; read-out: Peak width - 2D Mean,22.8%
same,activation at 11.11 µM,[2]; [6],24.3%
same,activation at 33.33 µM,[2]; [4],41.7%
same,activation at 33.33 µM,[2]; read-out: Peak Number—2D Mean,24.7%
same,activation at 33.33 µM,[2]; [5],15.3%
same,activation at 33.33 µM,[2]; read-out: Peak width - 2D Mean,31.2%
same,activation at 33.33 µM,[2]; [6],-5.2%
same,activation at 100 µM,[2]; [4],29.7%
same,activation at 100 µM,[2]; read-out: Peak Number—2D Mean,39.3%
same,activation at 100 µM,[2]; [5],10%
same,activation at 100 µM,[2]; read-out: Peak width - 2D Mean,24.3%
same,activation at 100 µM,[2]; [6],-26.3%
same,activation at 300 µM,[2]; [4],72.8%
same,activation at 300 µM,[2]; read-out: Peak Number—2D Mean,118%
same,activation at 300 µM,[2]; [5],6%
same,activation at 300 µM,[2]; read-out: Peak width - 2D Mean,113%
same,activation at 300 µM,[2]; [6],-46.8%
same,Free Cmax,[3]; [7],8 to 15 µM
same,Free Cmax,[3]; [8],8 to 15 µM
O=C1NC(=O)C(c2ccccc2)(c2ccccc2)N1 [Phenytoin],Area under the curve - 3D Mean,[1]; 3.7 µM,132.1 % change from baseline
same,Peak Number—3D Mean,[1]; 3.7 µM,1.4 % change from baseline
same,Peak amplitude - 3D Mean,[1]; 3.7 µM,111.5 % change from baseline
same,Peak width - 3D Mean,[1]; 3.7 µM,7.4 % change from baseline
same,Peak-to-peak interval - 3D Mean,[1]; 3.7 µM,2.9 % change from baseline
same,Area under the curve - 3D Mean,[1]; 11.11 µM,177.0 % change from baseline
same,Peak Number—3D Mean,[1]; 11.11 µM,−11.8 % change from baseline
same,Peak amplitude - 3D Mean,[1]; 11.11 µM,110.4 % change from baseline
same,Peak width - 3D Mean,[1]; 11.11 µM,29.4 % change from baseline
same,Peak-to-peak interval - 3D Mean,[1]; 11.11 µM,8.2 % change from baseline
same,Area under the curve - 3D Mean,[1]; 33.33 µM,199.3 % change from baseline
same,Peak Number—3D Mean,[1]; 33.33 µM,−14.6 % change from baseline
same,Peak amplitude - 3D Mean,[1]; 33.33 µM,91.2 % change from baseline
same,Peak width - 3D Mean,[1]; 33.33 µM,47.9 % change from baseline
same,Peak-to-peak interval - 3D Mean,[1]; 33.33 µM,17.7 % change from baseline
same,Area under the curve - 3D Mean,[1]; 100 µM,198.2 % change from baseline
same,Peak Number—3D Mean,[1]; 100 µM,−9.9 % change from baseline
same,Peak amplitude - 3D Mean,[1]; 100 µM,88.4 % change from baseline
same,Peak width - 3D Mean,[1]; 100 µM,50.5 % change from baseline
same,Peak-to-peak interval - 3D Mean,[1]; 100 µM,6.6 % change from baseline
same,"effect on peak number / Ca2+ neuronal oscillations, in words",[2],significantly reduced peak number
same,activation at 3.7 µM,[2]; [4],33.2%
same,activation at 3.7 µM,[2]; read-out: Peak Number—2D Mean,-33.5%
same,activation at 3.7 µM,[2]; [5],7.3%
same,activation at 3.7 µM,[2]; read-out: Peak width - 2D Mean,27.2%
same,activation at 3.7 µM,[2]; [6],46.3%
same,activation at 11.11 µM,[2]; [4],27.5%
same,activation at 11.11 µM,[2]; read-out: Peak Number—2D Mean,-15.2%
same,activation at 11.11 µM,[2]; [5],-0.2%
same,activation at 11.11 µM,[2]; read-out: Peak width - 2D Mean,31.5%
same,activation at 11.11 µM,[2]; [6],22.2%
same,activation at 33.33 µM,[2]; [4],15.8%
same,activation at 33.33 µM,[2]; read-out: Peak Number—2D Mean,-51.2%
same,activation at 33.33 µM,[2]; [5],-3%
same,activation at 33.33 µM,[2]; read-out: Peak width - 2D Mean,17%
same,activation at 33.33 µM,[2]; [6],89%
same,activation at 100 µM,[2]; [4],33.3%
same,activation at 100 µM,[2]; read-out: Peak Number—2D Mean,-27.5%
same,activation at 100 µM,[2]; [5],0.2%
same,activation at 100 µM,[2]; read-out: Peak width - 2D Mean,34.7%
same,activation at 100 µM,[2]; [6],44.5%
same,Free Cmax,[3]; [7],4 to 15 µM
same,Free Cmax,[3]; [8],4 to 15 µM
